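Where inhibition never reached the appropriate level, the endpoint shown equals the highest concentration tested. Otherwise, values were interpolated linearly from a five-concentration, 48-hour dose response in 96-well plates. GI50 is the concentration that inhibits growth by half. TGI marks complete inhibition of growth.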
What was measured:
Assay in all cases: growth of human tumour cells (NCI), 48 h
786-0 renal = test system: 786-0 renal
SK-MEL-2 melanoma = test system: SK-MEL-2 melanoma
MALME-3M melanoma = test system: MALME-3M melanoma
UACC-62 melanoma = test system: UACC-62 melanoma
U251 CNS = test system: U251 CNS
MDA-MB-231 breast = test system: MDA-MB-231 breast
SF-268 CNS = test system: SF-268 CNS
HS 578T breast = test system: HS 578T breast
DU-145 prostate = test system: DU-145 prostate
ACHN renal = test system: ACHN renal
SW-620 colon = test system: SW-620 colon
A549 NSCLC = test system: A549 NSCLC
LOX IMVI melanoma = test system: LOX IMVI melanoma
HCC-2998 colon = test system: HCC-2998 colon
NCI-H522 lung = test system: NCI-H522 lung
A498 renal = test system: A498 renal
SF-539 CNS = test system: SF-539 CNS
UO-31 renal = test system: UO-31 renal
TK-10 renal = test system: TK-10 renal
NCI-H23 lung = test system: NCI-H23 lung
RPMI-8226 leukemia = test system: RPMI-8226 leukemia
HOP-62 NSCLC = test system: HOP-62 NSCLC
RXF 393 renal = test system: RXF 393 renal
UACC-257 melanoma = test system: UACC-257 melanoma
OVCAR-5 ovarian = test system: OVCAR-5 ovarian

Cc1ccc2ccc3ccc(C)nc3c2n1.Cc1ccc2ccc3ccc(C)nc3c2n1.Oc1c(Cl)cc(Cl)c2ccc(CN3CCCCC3)nc12.[Ru]
TGI (786-0 renal): 1780 nM
GI50 (SK-MEL-2 melanoma): 613 nM
TGI (SK-MEL-2 melanoma): 1840 nM
GI50 (MALME-3M melanoma): 248 nM
TGI (MALME-3M melanoma): 666 nM
GI50 (UACC-62 melanoma): 445 nM
TGI (UACC-62 melanoma): 1670 nM
GI50 (U251 CNS): 218 nM
TGI (U251 CNS): 1160 nM
GI50 (MDA-MB-231 breast): 295 nM
TGI (MDA-MB-231 breast): 909 nM
GI50 (SF-268 CNS): 447 nM
TGI (SF-268 CNS): 2210 nM
GI50 (HS 578T breast): 354 nM
TGI (HS 578T breast): 2320 nM
GI50 (DU-145 prostate): 494 nM
TGI (DU-145 prostate): 4910 nM
GI50 (ACHN renal): 1650 nM
TGI (ACHN renal): 3230 nM
GI50 (SW-620 colon): 381 nM
TGI (SW-620 colon): 1610 nM
GI50 (A549 NSCLC): 326 nM
TGI (A549 NSCLC): 1280 nM
GI50 (LOX IMVI melanoma): 341 nM
TGI (LOX IMVI melanoma): 1230 nM
GI50 (HCC-2998 colon): 414 nM
TGI (HCC-2998 colon): 1580 nM
GI50 (NCI-H522 lung): 363 nM
TGI (NCI-H522 lung): 2130 nM
GI50 (A498 renal): 1760 nM
TGI (A498 renal): 4020 nM
GI50 (SF-539 CNS): 366 nM
TGI (SF-539 CNS): 1290 nM
GI50 (UO-31 renal): 1720 nM
TGI (UO-31 renal): 3880 nM
GI50 (TK-10 renal): 734 nM
TGI (TK-10 renal): 2070 nM
GI50 (NCI-H23 lung): 300 nM
TGI (NCI-H23 lung): 1130 nM
GI50 (RPMI-8226 leukemia): 223 nM
TGI (RPMI-8226 leukemia): 876 nM
GI50 (HOP-62 NSCLC): 409 nM
TGI (HOP-62 NSCLC): 1410 nM
GI50 (RXF 393 renal): 714 nM
TGI (RXF 393 renal): 1990 nM
GI50 (UACC-257 melanoma): 350 nM
TGI (UACC-257 melanoma): 1230 nM
GI50 (OVCAR-5 ovarian): 599 nM
TGI (OVCAR-5 ovarian): 3010 nM
